Tests used:
Test in all cases: Field foliar treatment test (Test Example 1)
Format in all cases: in vivo
Details in all cases: foliar spray at 1.0- to 2.0-leaf stage, wettable powder, active ingredient 10 g/a, 21st day from the treatment
Brassica juncea = system: Brassica juncea
Experimental: (§1) Alluvial soil from a field was put in a resin-made vat having an area of 200 cm^2. After fertilization, the seeds of Echinochloa crus-galli, Brassica juncea, and Ipomoea purpurea were cast on the soil and uniformly covered with the soil. Then, cultivation was continued in a greenhouse, and when the weeds to be tested reached the 1.0- to 2.0-leaf stage, the wettable powder obtained in Formulation Example 1 was diluted with water and a predetermined amount thereof was sprayed uniformly to the weeds by means of a small-sized power pressure spray to give 10 g of the active ingredient per an are. Thereafter, cultivation was further continued in the greenhouse, and the herbicidal effect was examined on the 21st day from the treatment. The results obtained are shown in Table 7 (the compound numbers in Table 7 correspond to those in Table 1 to 6). The herbicidal effect was evaluated in terms of herbicidal rate obtained from the following equation: Herbicidal rate (%)=[1−(Weight of weeds above the ground in a treated plot)/(Weight of weeds above the ground in a non-treated plot)]×100 and was expressed by herbicidal index according to the following criteria. [table]

Echinochloa crus-galli = system: Echinochloa crus-galli
Experimental: as §1

Ipomoea purpurea = system: Ipomoea purpurea
Experimental: as §1

SMILES	Herbicidal effect Brassica juncea (herbicidal index) (Brassica juncea)	Herbicidal effect Echinochloa crus-galli (herbicidal index) (Echinochloa crus-galli)	Herbicidal effect Ipomoea purpurea (herbicidal index) (Ipomoea purpurea)
Cc1cc2c(-c3ccccc3OC(F)(F)F)nc(Cl)nc2s1 [5-31]	5 (91 to 100)	4 (71 to 90)	5 (91 to 100)
CCCOc1nc(-c2cccc(C(F)(F)F)c2)c2cc(C)sc2n1 [6-25]	5 (91 to 100)	4 (71 to 90)	5 (91 to 100)
CCCOc1nc(-c2cccc(OC(F)(F)F)c2)c2cc(C)sc2n1 [6-35]	5 (91 to 100)	5 (91 to 100)	5 (91 to 100)
CCCOc1nc(-c2cccc(SC(F)(F)F)c2)c2cc(C)sc2n1 [6-39]	4 (71 to 90)	5 (91 to 100)	5 (91 to 100)
CCCOc1nc(-c2cccc(OC(F)F)c2)c2cc(C)sc2n1 [6-40]	5 (91 to 100)	4 (71 to 90)	5 (91 to 100)
Cc1cc2c(-c3cccc(Br)c3)nc(OC3CCCC3)nc2s1 [6-61]	4 (71 to 90)	4 (71 to 90)	4 (71 to 90)
Cc1cc2c(-c3cccc(C(F)(F)F)c3)nc(OC3CCCC3)nc2s1 [6-80]	5 (91 to 100)	5 (91 to 100)	5 (91 to 100)
Cc1cc2c(-c3ccc(F)c(C(F)(F)F)c3)nc(OC3CCCC3)nc2s1 [6-83]	4 (71 to 90)	5 (91 to 100)	5 (91 to 100)
Cc1cc2c(-c3cccc(OC(F)(F)F)c3)nc(OC3CCCC3)nc2s1 [6-85]	4 (71 to 90)	5 (91 to 100)	5 (91 to 100)
C#CC(C)Oc1nc(-c2cccc(C(F)(F)F)c2)c2cc(C)sc2n1 (stereo not drawn) [6-90]	5 (91 to 100)	5 (91 to 100)	5 (91 to 100)
C=CCCOc1nc(-c2cccc(C(F)(F)F)c2)c2cc(C)sc2n1 [6-92]	5 (91 to 100)	5 (91 to 100)	4 (71 to 90)
Cc1cc2c(-c3cccc(C(F)(F)F)c3)nc(OCCF)nc2s1 [6-96]	5 (91 to 100)	4 (71 to 90)	5 (91 to 100)
Cc1cc2c(-c3cccc(C(F)(F)F)c3)nc(OCC(F)(F)F)nc2s1 [6-97]	5 (91 to 100)	5 (91 to 100)	5 (91 to 100)
Cc1cc2c(-c3cccc(C(F)(F)F)c3)nc(OCC(Cl)(Cl)Cl)nc2s1 [6-98]	4 (71 to 90)	5 (91 to 100)	5 (91 to 100)
Cc1cc2c(-c3cccc(OC(F)(F)F)c3)nc(OCC(F)F)nc2s1 [6-109]	5 (91 to 100)	5 (91 to 100)	4 (71 to 90)
Cc1cc2c(-c3cccc(OC(F)(F)F)c3)nc(OCC(F)(F)C(F)F)nc2s1 [6-112]	5 (91 to 100)	5 (91 to 100)	5 (91 to 100)
Cc1cc2c(-c3cccc(SC(F)(F)F)c3)nc(OCC(F)(F)F)nc2s1 [6-115]	5 (91 to 100)	5 (91 to 100)	5 (91 to 100)

SMILES	Herbicidal effect Brassica juncea (herbicidal index) (Brassica juncea)	Herbicidal effect Echinochloa crus-galli (herbicidal index) (Echinochloa crus-galli)	Herbicidal effect Ipomoea purpurea (herbicidal index) (Ipomoea purpurea)
Cc1cc2c(-c3cccc(OC(F)F)c3)nc(OCC(F)(F)C(F)F)nc2s1 [6-125]	5 (91 to 100)	5 (91 to 100)	5 (91 to 100)
COCC(C)Oc1nc(-c2cccc(C(F)(F)F)c2)c2cc(C)sc2n1 (stereo not drawn) [6-142]	4 (71 to 90)	5 (91 to 100)	5 (91 to 100)
Cc1cc2c(-c3cccc(C(F)(F)F)c3)nc(OC3CCOC3)nc2s1 (stereo not drawn) [6-184]	4 (71 to 90)	5 (91 to 100)	5 (91 to 100)
Cc1cc2c(-c3cccc(C(F)(F)F)c3)nc(OCc3ccco3)nc2s1 [6-187]	5 (91 to 100)	4 (71 to 90)	5 (91 to 100)
Cc1cc2c(-c3cccc(C(F)(F)F)c3)nc(-n3cccn3)nc2s1 [6-192]	4 (71 to 90)	4 (71 to 90)	5 (91 to 100)
Cc1cc2c(-c3cccc(C(F)(F)F)c3)nc(-n3cncn3)nc2s1 [6-193]	4 (71 to 90)	4 (71 to 90)	5 (91 to 100)
Cc1cc2c(-c3cccc(C(F)(F)F)c3)nc(-n3ccnc3C)nc2s1 [6-194]	5 (91 to 100)	4 (71 to 90)	5 (91 to 100)
Cc1cc2c(Oc3cccc(OC(F)(F)F)c3)nc(-n3ccc(C(F)(F)F)n3)nc2s1 [6-202]	4 (71 to 90)	4 (71 to 90)	5 (91 to 100)
Cc1cc2c(-c3ccc(F)c(C(F)(F)F)c3)nc(OCC(F)(F)F)nc2s1 [6-207]	5 (91 to 100)	5 (91 to 100)	5 (91 to 100)
Cc1cccc(-c2nc(OC(C)C)nc3sc(C)cc23)c1 [6-215]	5 (91 to 100)	5 (91 to 100)	5 (91 to 100)
Cc1cc2c(-c3ccccc3C)nc(OCC(F)(F)F)nc2s1 [6-217]	5 (91 to 100)	4 (71 to 90)	5 (91 to 100)
Cc1cc2nc(OCC(F)(F)F)nc(-c3cccc(OC(F)(F)F)c3)c2s1 [6-235]	5 (91 to 100)	5 (91 to 100)	5 (91 to 100)
C#CC(C)Oc1nc(-c2cccc(OC(F)(F)F)c2)c2sc(C)cc2n1 (stereo not drawn) [6-236]	5 (91 to 100)	5 (91 to 100)	5 (91 to 100)
Cc1cc2c(-c3cccc(C)c3C)nc(OCC(F)(F)F)nc2s1 [6-245]	5 (91 to 100)	4 (71 to 90)	5 (91 to 100)
Cc1cc2c(-c3ccccc3C(F)(F)F)nc(OCC(F)(F)C(F)F)nc2s1 [6-249]	5 (91 to 100)	4 (71 to 90)	5 (91 to 100)
Cc1cc2c(-c3ccccc3OC(F)(F)F)nc(OCC(F)(F)F)nc2s1 [6-251]	5 (91 to 100)	5 (91 to 100)	5 (91 to 100)
CCCOc1nc(-c2ccc(F)c(C(F)(F)F)c2)c2cc(C)sc2n1 [Compound No. 6-29, 4-[4-fluoro-3-(trifluoromethyl)phenyl]-6-methyl-2-propoxythieno[2,3-d]pyrimidine]	4 (71 to 90)	4 (71 to 90)	5 (91 to 100)
